Source: EP3046573B1, “AMYLIN ANALOGUES” (Zealand Pharma A/S, priority 2013, dated 2015)
Numbered stars: 1 amine (or outer) side, 2 acyl side, 3 side chain; on linkers, the order of the positions; unused ones are H or OH. Bridge positions count the residues as written; N and C are the ends. Square brackets hold non-standard residues; d marks the D form. Peptide text beside a SMILES is read from it. * marks the point of attachment. C20 diacid = O=C(O)CCCCCCCCCCCCCCCCCCC(=O)*; γGlu = O=C(O)[C@H](CCC(=O)[*:2])N[*:1]; NMeI = CC[C@H](C)[C@H](NC)C(=O)O; NMeA = CN[C@@H](C)C(=O)O; Sar = CNCC(=O)O

What was measured:
[1] = target: T1, human calcitonin receptor (hCTR2) (Homo sapiens, UniProt P30988); assay: hCTR2 assay: induction of cAMP (AlphaScreen cAMP Assay kit) in COS7 cells expressing hCTR2; format: cell-based; conditions: cAMP induction in COS7 cells expressing hCTR2; average of a minimum of 3 determinations; read-out: hCTR2 EC50
T1 construct: expressed in transfected cells
T1 sequence (P30988 25-474): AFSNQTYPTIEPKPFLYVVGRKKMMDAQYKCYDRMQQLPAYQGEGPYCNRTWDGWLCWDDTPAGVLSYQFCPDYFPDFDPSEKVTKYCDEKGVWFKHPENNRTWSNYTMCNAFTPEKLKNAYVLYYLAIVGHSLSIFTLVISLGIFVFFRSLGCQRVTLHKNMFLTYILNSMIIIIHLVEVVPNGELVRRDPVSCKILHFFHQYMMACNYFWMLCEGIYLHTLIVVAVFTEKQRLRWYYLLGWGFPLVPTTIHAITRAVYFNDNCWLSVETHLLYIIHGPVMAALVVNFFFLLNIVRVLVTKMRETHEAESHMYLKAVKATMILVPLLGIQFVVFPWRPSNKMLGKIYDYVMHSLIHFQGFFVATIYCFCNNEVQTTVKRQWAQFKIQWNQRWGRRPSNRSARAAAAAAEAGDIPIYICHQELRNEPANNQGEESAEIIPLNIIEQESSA
Outline: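 COS7 stable hCTR2 clone (RAMP-free); peptide dose-response 15 min 37° C in Tyrode pH 7.4 + 100 µM IBMX + 0.1% casein; lysis 10 min RT; AlphaScreen cAMP; 4PL fit.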

[2] = Solubility assessment (turbidity absorbance at 325 nm); format: physicochemical; conditions: stock 2 mg/ml diluted 1:1, ambient temperature (typically 25°C), n=1; for Solubility, Acetate buffer pH 4: 100 mM acetate buffer pH 4.0; for Solubility, Acetate buffer pH 5: 100 mM acetate buffer pH 5.0; for Solubility, Histidine buffer pH 6: 100 mM histidine buffer pH 6.0; for Solubility, Histidine buffer pH 7: 100 mM histidine buffer pH 7.0; for Solubility, Phosphate buffer pH 6: 100 mM phosphate buffer pH 6.0; for Solubility, Phosphate buffer pH 7: 100 mM phosphate buffer pH 7.0; for Solubility, Phosphate buffer pH 7.5: 100 mM phosphate buffer pH7.5
Outline: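 Peptide stock (2 mg/ml) in water acidified to pH 2.5 with HCl was diluted 1:1 into 100 mM acetate (pH 4.0, 5.0), histidine (pH 6.0, 7.0) or phosphate (pH 6.0, 7.0, 7.5) buffer. A280 and A325 were read at about 25°C, n=1. A325 ≤ 0.02 meant solubility ≥ 1 mg/ml.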

CC[C@H](C)[C@@H](C(=O)N[C@@H](CO)C(=O)N[C@@H](CO)C(=O)N[C@H](C(=O)N[C@@H](CC(N)=O)C(=O)N[C@H](C(=O)NCC(=O)N[C@@H](CO)C(=O)N[C@@H](CC(N)=O)C(=O)N[C@H](C(=O)N1CCC[C@H]1C(N)=O)[C@@H](C)O)C(C)C)[C@@H](C)O)N(C)C(=O)CN(C)C(=O)[C@H](Cc1ccccc1)NC(=O)[C@H](CC(N)=O)NC(=O)[C@H](CC(N)=O)NC(=O)[C@H](CO)NC(=O)[C@H](CO)NC(=O)[C@H](Cc1c[nH]cn1)NC(=O)[C@H](Cc1c[nH]cn1)NC(=O)[C@H](CC(C)C)NC(=O)[C@H](Cc1ccccc1)NC(=O)[C@H](CCC(=O)O)NC(=O)[C@H](C)NC(=O)[C@H](CC(C)C)NC(=O)[C@H](CCCNC(=N)N)NC(=O)[C@H](CCC(N)=O)NC(=O)[C@@H](NC(=O)[C@H](C)NC(=O)[C@@H]1CSSC[C@H](NC(=O)[C@H](CCCNC(=N)N)NC(=O)CC[C@H](NC(=O)CCCCCCCCCCCCCCCCCCC(=O)O)C(=O)O)C(=O)N[C@@H](CC(N)=O)C(=O)N[C@@H]([C@@H](C)O)C(=O)N[C@@H](C)C(=O)N[C@@H]([C@@H](C)O)C(=O)N1)[C@@H](C)O [Compound 55, [19CD]-isoGlu-RC()NTATC()ATQRLAEFLHHSSNNF-Gly(Me)-Ile(Me)-SSTNVGSNTP-NH2] ({C20 diacid-γGlu}-RCNTATCATQRLAEFLHHSSNNF[Sar][NMeI]SSTNVGSNTP-NH2; disulfide 2-7)
EC50 [1]: 0.076 nM | Solubility, Acetate buffer pH 4 [2]: II (II indicates solubility ≤ 1 mg/ml) | Solubility, Acetate buffer pH 5 [2]: II (II indicates solubility ≤ 1 mg/ml) | Solubility, Histidine buffer pH 6 [2]: II (II indicates solubility ≤ 1 mg/ml) | Solubility, Histidine buffer pH 7 [2]: II (II indicates solubility ≤ 1 mg/ml) | Solubility, Phosphate buffer pH 6 [2]: II (II indicates solubility ≤ 1 mg/ml) | Solubility, Phosphate buffer pH 7 [2]: II (II indicates solubility ≤ 1 mg/ml) | Solubility, Phosphate buffer pH 7.5 [2]: II (II indicates solubility ≤ 1 mg/ml)

CC[C@H](C)[C@@H](C(=O)N[C@@H](CC(C)C)C(=O)N[C@@H](CO)C(=O)N[C@@H](CO)C(=O)N[C@H](C(=O)N[C@@H](CC(N)=O)C(=O)N[C@H](C(=O)NCC(=O)N[C@@H](CO)C(=O)N[C@@H](CC(N)=O)C(=O)N[C@H](C(=O)N1CCC[C@H]1C(N)=O)[C@@H](C)O)C(C)C)[C@@H](C)O)N(C)C(=O)[C@H](C)NC(=O)[C@H](C)N(C)C(=O)[C@H](Cc1ccccc1)NC(=O)[C@H](CC(N)=O)NC(=O)[C@H](CC(N)=O)NC(=O)[C@H](CO)NC(=O)[C@H](CO)NC(=O)[C@H](Cc1c[nH]cn1)NC(=O)[C@H](Cc1c[nH]cn1)NC(=O)[C@H](CC(C)C)NC(=O)[C@H](Cc1ccccc1)NC(=O)[C@H](CCC(=O)O)NC(=O)[C@H](C)NC(=O)[C@H](CC(C)C)NC(=O)[C@H](CCCNC(=N)N)NC(=O)[C@H](CCC(N)=O)NC(=O)[C@@H](NC(=O)[C@H](C)NC(=O)[C@@H]1CSSC[C@H](NC(=O)[C@H](CCCNC(=N)N)NC(=O)CC[C@H](NC(=O)CCCCCCCCCCCCCCCCCCC(=O)O)C(=O)O)C(=O)N[C@@H](CC(N)=O)C(=O)N[C@@H]([C@@H](C)O)C(=O)N[C@@H](C)C(=O)N[C@@H]([C@@H](C)O)C(=O)N1)[C@@H](C)O [Compound 56, [19CD]-isoGlu-RC()NTATC()ATQRLAEFLHHSSNNF-Ala(Me)-A-Ile(Me)-LSSTNVGSNTP-NH2] ({C20 diacid-γGlu}-RCNTATCATQRLAEFLHHSSNNF[NMeA]A[NMeI]LSSTNVGSNTP-NH2; disulfide 2-7)
EC50 [1]: 0.14 nM | Solubility, Acetate buffer pH 4 [2]: SS (SS indicates solubility ≥ 1mg/ml) | Solubility, Acetate buffer pH 5 [2]: II (II indicates solubility ≤ 1 mg/ml) | Solubility, Histidine buffer pH 6 [2]: II (II indicates solubility ≤ 1 mg/ml) | Solubility, Histidine buffer pH 7 [2]: II (II indicates solubility ≤ 1 mg/ml) | Solubility, Phosphate buffer pH 6 [2]: II (II indicates solubility ≤ 1 mg/ml) | Solubility, Phosphate buffer pH 7 [2]: II (II indicates solubility ≤ 1 mg/ml) | Solubility, Phosphate buffer pH 7.5 [2]: II (II indicates solubility ≤ 1 mg/ml)
